Results as given in ChEMBL document CHEMBL1201862, “PubChem BioAssay data set” (2004).
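48-hour exposure; five concentrations; linearly interpolated endpoints. Here, GI50 denotes the concentration required for 50% inhibition of growth.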 Calls of active or inactive are those of the source. Cut-off read from the data, not from the text of the source: active = GI50 up to about 1.1 µM and inactive = higher.

Assays:
Test in all cases: NCI anticancer screen, dose series, 48 h
786-0 = test system: 786-0
A498 = test system: A498
A549 = test system: A549
ACHN = test system: ACHN
BT-549 = test system: BT-549
COLO 205 = test system: COLO 205
EKVX = test system: EKVX
HCC 2998 = test system: HCC 2998
HCT-116 = test system: HCT-116
HCT-15 = test system: HCT-15
HL-60 = test system: HL-60
HOP-62 = test system: HOP-62
HOP-92 = test system: HOP-92
HT-29 = test system: HT-29
Hs-578T = test system: Hs-578T
IGROV-1 = test system: IGROV-1
K562 = test system: K562
KM12 = test system: KM12
M14 = test system: M14
MCF7 = test system: MCF7
MDA-MB-231 = test system: MDA-MB-231
MDA-N = test system: MDA-N
MOLT-4 = test system: MOLT-4
Malme-3M = test system: Malme-3M
NCI-H226 = test system: NCI-H226
NCI-H23 = test system: NCI-H23
NCI-H460 = test system: NCI-H460
OVCAR-5 = test system: OVCAR-5
OVCAR-8 = test system: OVCAR-8
PC-3 = test system: PC-3
RPMI-8226 = test system: RPMI-8226
RXF 393 = test system: RXF 393
SK-MEL-28 = test system: SK-MEL-28
SK-MEL-2 = test system: SK-MEL-2
SK-MEL-5 = test system: SK-MEL-5
SN12C = test system: SN12C
SNB-19 = test system: SNB-19
SNB-75 = test system: SNB-75
SR = test system: SR
SW-620 = test system: SW-620
TK-10 = test system: TK-10
U-251 = test system: U-251
UACC-257 = test system: UACC-257
UACC-62 = test system: UACC-62
UO-31 = test system: UO-31
CAKI-1 = test system: CAKI-1
CCRF-CEM = test system: CCRF-CEM
DU-145 = test system: DU-145
LOX IMVI = test system: LOX IMVI
MDA-MB-435 = test system: MDA-MB-435
NCI-H522 = test system: NCI-H522
NCI/ADR-RES = test system: NCI/ADR-RES
OVCAR-3 = test system: OVCAR-3
OVCAR-4 = test system: OVCAR-4
SF-268 = test system: SF-268
SF-295 = test system: SF-295
SF-539 = test system: SF-539
SK-OV-3 = test system: SK-OV-3
T47D = test system: T47D

COc1ccc(C2OC(=O)c3c2ccc2ccccc32)c(C)c1 (stereo not drawn)
GI50 (786-0): 3.33 µM (inactive) | GI50 (A498): 1.93 µM (inactive) | GI50 (A549): 3.07 µM (inactive) | GI50 (ACHN): 5.93 µM (inactive) | GI50 (BT-549): 10.5 µM (inactive) | GI50 (COLO 205): 1.15 µM (inactive) | GI50 (EKVX): 6.07 µM (inactive) | GI50 (HCC 2998): 1.02 µM (active) | GI50 (HCT-116): 3.81 µM (inactive) | GI50 (HCT-15): 1.93 µM | GI50 (HL-60): 2.33 µM (inactive) | GI50 (HOP-62): 3.48 µM (inactive) | GI50 (HOP-92): 8.04 µM (inactive) | GI50 (HT-29): 3.37 µM (inactive) | GI50 (Hs-578T): 3.44 µM (inactive) | GI50 (IGROV-1): 4.79 µM (inactive) | GI50 (K562): 0.697 µM (active) | GI50 (KM12): 2.38 µM (inactive) | GI50 (M14): 1.32 µM (inactive) | GI50 (MCF7): 3.45 µM (inactive) | GI50 (MDA-MB-231): 3 µM (inactive) | GI50 (MDA-N): 0.499 µM (active) | GI50 (MOLT-4): 2.73 µM (inactive) | GI50 (Malme-3M): 1 µM (active) | GI50 (NCI-H226): 5.25 µM (inactive) | GI50 (NCI-H23): 5.41 µM (inactive) | GI50 (NCI-H460): 3.3 µM (inactive) | GI50 (OVCAR-5): 13.2 µM (inactive) | GI50 (OVCAR-8): 4.06 µM (inactive) | GI50 (PC-3): 3.27 µM (inactive) | GI50 (RPMI-8226): 3.18 µM (inactive) | GI50 (RXF 393): 2.69 µM (inactive) | GI50 (SK-MEL-28): 2.92 µM (inactive) | GI50 (SK-MEL-2): 1.34 µM (inactive) | GI50 (SK-MEL-5): 1.77 µM (inactive) | GI50 (SN12C): 1.21 µM (inactive) | GI50 (SNB-19): 4.8 µM (inactive) | GI50 (SNB-75): 2.93 µM (inactive) | GI50 (SR): 2.42 µM (inactive) | GI50 (SW-620): 1.14 µM (inactive) | GI50 (TK-10): 2.94 µM (inactive) | GI50 (U-251): 3.43 µM (inactive) | GI50 (UACC-257): 3.78 µM (inactive) | GI50 (UACC-62): 7.19 µM (inactive) | GI50 (UO-31): 5.4 µM (inactive)

CCCc1ccc(OCC(=O)N/N=C/c2c(-c3ccccc3)[nH]c3ccccc23)cc1
GI50 (786-0): 14.1 µM (inactive) | GI50 (A498): 14.4 µM (inactive) | GI50 (A549): 8.17 µM (inactive) | GI50 (ACHN): 13.1 µM (inactive) | GI50 (BT-549): 13.8 µM (inactive) | GI50 (CAKI-1): 21.1 µM (inactive) | GI50 (CCRF-CEM): 5.98 µM (inactive) | GI50 (COLO 205): 3.43 µM (inactive) | GI50 (DU-145): 21.5 µM (inactive) | GI50 (EKVX): 12.7 µM (inactive) | GI50 (HCC 2998): 4.04 µM (inactive) | GI50 (HCT-116): 8.97 µM (inactive) | GI50 (HCT-15): 4.99 µM | GI50 (HL-60): 3.96 µM (inactive) | GI50 (HOP-62): 12.9 µM (inactive) | GI50 (HOP-92): 13.7 µM (inactive) | GI50 (HT-29): 6.64 µM (inactive) | GI50 (Hs-578T): 28.4 µM (inactive) | GI50 (IGROV-1): 13.1 µM (inactive) | GI50 (K562): 3.99 µM (inactive) | GI50 (KM12): 4.91 µM (inactive) | GI50 (LOX IMVI): 9.38 µM (inactive) | GI50 (M14): 11.5 µM (inactive) | GI50 (MCF7): 4.57 µM (inactive) | GI50 (MDA-MB-231): 7.06 µM (inactive) | GI50 (MDA-MB-435): 2.77 µM (inactive) | GI50 (MOLT-4): 5.01 µM (inactive) | GI50 (Malme-3M): 7.85 µM (inactive) | GI50 (NCI-H226): 17.3 µM (inactive) | GI50 (NCI-H23): 13.6 µM (inactive) | GI50 (NCI-H460): 4 µM (inactive) | GI50 (NCI-H522): 14.6 µM (inactive) | GI50 (NCI/ADR-RES): 6.81 µM (inactive) | GI50 (OVCAR-3): 24.5 µM (inactive) | GI50 (OVCAR-4): 8.32 µM (inactive) | GI50 (OVCAR-5): 22.4 µM (inactive) | GI50 (OVCAR-8): 9.08 µM (inactive) | GI50 (PC-3): 5.98 µM (inactive) | GI50 (RPMI-8226): 5.48 µM (inactive) | GI50 (RXF 393): 11.1 µM (inactive) | GI50 (SF-268): 27.7 µM (inactive) | GI50 (SF-295): 8.69 µM (inactive) | GI50 (SF-539): 16.2 µM (inactive) | GI50 (SK-MEL-28): 20.1 µM (inactive) | GI50 (SK-MEL-2): 3.23 µM (inactive) | GI50 (SK-MEL-5): 8.43 µM (inactive) | GI50 (SK-OV-3): 27.2 µM (inactive) | GI50 (SN12C): 14 µM (inactive) | GI50 (SNB-19): 35.8 µM (inactive) | GI50 (SNB-75): 19.2 µM (inactive) | GI50 (SR): 3.85 µM (inactive) | GI50 (SW-620): 10.6 µM (inactive) | GI50 (T47D): 5.77 µM (inactive) | GI50 (TK-10): 17.1 µM (inactive) | GI50 (U-251): 6.19 µM (inactive) | GI50 (UACC-257): 15.4 µM (inactive) | GI50 (UACC-62): 11.9 µM (inactive) | GI50 (UO-31): 24 µM (inactive)
